Consider 17 molecules from patent US11306064B2, “Benzothia(di)azepine compounds and their use as bile acid modulators” (Albireo AB, priority 2018, dated 2022).

Type in all cases: cell-based
One test deals with T1, Human LBAT (Homo sapiens, UniProt Q14973).
T1 construct: expressed in transfected cells; kept under Geneticin selection
T1 sequence (Q14973 1-349): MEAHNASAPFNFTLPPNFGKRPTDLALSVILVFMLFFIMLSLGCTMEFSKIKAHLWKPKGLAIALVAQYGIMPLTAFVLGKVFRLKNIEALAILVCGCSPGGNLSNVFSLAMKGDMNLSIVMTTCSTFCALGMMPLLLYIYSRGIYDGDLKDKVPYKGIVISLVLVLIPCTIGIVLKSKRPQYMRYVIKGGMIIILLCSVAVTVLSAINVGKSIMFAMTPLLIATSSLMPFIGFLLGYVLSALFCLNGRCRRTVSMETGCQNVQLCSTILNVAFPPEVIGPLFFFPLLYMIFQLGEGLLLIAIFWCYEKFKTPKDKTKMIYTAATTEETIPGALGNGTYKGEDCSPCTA
Nature of the test: LBAT (h/m) assay: 3H-taurocholic acid uptake in human LBAT-overexpressing cells. To be noted: 0.3 μM 3H-taurocholic acid and 7.5 μM cold taurocholic acid, 20 minutes, read-out: hLBAT IC50. Put shortly: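 LBAT-overexpressing cells, serum-free MEM-alpha, 20 min at 37° C with inhibitor (3-fold, 10-point) plus 0.3 μM 3H-taurocholic acid and cold taurocholic acid (7.5 μM human; 25 μM mouse), 0.2% DMSO. Stopped on ice, washed with 1 mM unlabelled taurocholate; uptake by scintillation counting.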

For a further test, the target named is T2, Human ASBT (Homo sapiens, UniProt Q12908).
T2 construct: expressed in transfected cells; kept under Puromycin selection
T2 sequence (Q12908 1-348): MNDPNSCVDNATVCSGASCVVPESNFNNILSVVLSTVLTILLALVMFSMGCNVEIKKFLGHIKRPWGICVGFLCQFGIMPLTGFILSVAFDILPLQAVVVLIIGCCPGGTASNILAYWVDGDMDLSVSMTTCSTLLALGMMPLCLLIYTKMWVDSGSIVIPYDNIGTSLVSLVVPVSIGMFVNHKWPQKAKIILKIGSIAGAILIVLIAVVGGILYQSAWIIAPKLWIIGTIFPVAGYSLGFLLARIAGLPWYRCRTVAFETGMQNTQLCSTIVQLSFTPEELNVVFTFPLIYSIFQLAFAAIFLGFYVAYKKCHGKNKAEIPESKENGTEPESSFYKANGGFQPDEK
Nature of the test: ASBT (h/m) assay: 3H-taurocholic acid uptake in human ASBT-overexpressing cells. Particulars: 0.25 μM 3H-taurocholic acid and 5 μM cold taurocholic acid, 20 minutes, read-out: hASBT IC50. Put shortly: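 ASBT-overexpressing cells, seeded 48 h earlier, took up 0.25 µM 3H-taurocholic acid plus 5 µM cold taurocholate for 20 min at 37 °C with inhibitor (10-point 3-fold series, top 10 µM, 0.2% DMSO). Ice stop, washes with cold 1 mM taurocholate in HEPES-HBSS pH 7.4, scintillation counting.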

The next test relates to HepaRG cells. Nature of the test: HepaRG-based assay: 3H-taurocholic acid uptake in differentiated HepaRG cells. To be noted: 0.3 μM 3H-taurocholic acid and 7.5 μM cold taurocholic acid, 30 minutes. As for the experimental part: HepaRG-Based Assay Protocol
A cryopreserved vial of differentiated HepaRG cells (Biopredic International HPR116080) was thawed in HepaRG Thawing/Plating/General Purpose Medium (Biopredic International ADD670C) supplemented with 200 mM Glutamax (Gibco 35050061) following the protocol provided by Biopredic International. 70,000 cells per well were seeded in 96-wells plate (Corning CLS3809) in 100 μL of HepaRG Thawing/Plating/General Purpose Medium supplemented with 200 mM Glutamax and incubated at 37° C. in 5% CO2 for 24 hours. Post incubation, the seeding media was replaced by HepaRG Maintenance/Metabolism Medium (Biopredic International ADD620C) and incubated for 6 days, with fresh HepaRG Maintenance/Metabolism Medium replenishment every 48 hours. After 7 days incubation post seeding, incubation media was decanted from the wells and cells were washed two times with 250 μL of William's E Basal Media (Gibco 12551032). After decanting William's E Basal Media each time, plates were tapped against paper towel to ensure maximum removal of residual media.
Incubation mix was prepared by adding test inhibitor dilutions (3-fold serial dilution in DMSO (Sigma D2650)) in William's E media (basal) containing 0.3 μM 3H-taurocholic acid (ARC ART-1368) and 7.5 μM cold taurocholic acid (Sigma T4009) (maintaining 0.2% final DMSO concentration). 50 μl of incubation mix containing test inhibitors was then added to the wells (in duplicate) and the plates were incubated for 30 minutes in 5% CO2 incubator at 37° C. After incubation, the reaction was stopped by keeping the plates on ice water mix for 2-3 minutes and then the incubation mix was aspirated completely from the wells. The wells were washed two times with 250 μL of chilled unlabelled 1 mM taurocholic acid dissolved in HEPES (Gibco 15630080)-buffered (10 mM) HBSS (Gibco 14175079) (pH 7.4). The plates were tapped against a paper towel after every wash to ensure maximum removal of blocking buffer.
100 μL of MicroScint-20 (PerkinElmer 6013621) was added to the wells and kept overnight at room temperature before reading the plates in TopCount NXT™ Microplate Scintillation and Luminescence Counter from PerkinElmer under 3H Test protocol (set at 120 seconds reading time per well, with normal plate orientation).
Preparation of Test Compound Dilutions
All test compounds were provided in powder form at room temperature. 10 mM DMSO stocks of the test compounds were prepared, aliquoted and stored at −20° C. From the 10 mM DMSO stock of the compounds, a 3-fold serial dilution in DMSO was prepared to get a total of 10 dilutions of the test compounds. 0.5 μL of this dilution in DMSO was added to 250 μL of FBS-free basal media containing 3H-taurocholic acid and cold taurocholic acid to prepare the incubation mixture.

One may read the IC50 as the midpoint of a concentration-inhibition curve. `CCCCC1(CC)CN(c2ccccc2)c2cc(Cl)c(O/C=C(\F)C(=O)O)cc2S(=O)(=O)C1` (single isomer, unassigned) [Example 47, (Z)-3-((3-butyl-7-chloro-3-ethyl-1,1-dioxido-5-phenyl-2,3,4,5-tetrahydro-1,5-benzothiazepin-8-yl)oxy)-2-fluoroacrylic acid]: the IC50 is 25 nM on Human LBAT; 339 nM on Human ASBT; 362 nM with HepaRG cells (Homo sapiens, HepaRG).

Turning to `CCCCC1(CC)CN(c2ccccc2)c2cc(Cl)c(O/C=C/C(=O)O)cc2S(=O)(=O)C1` (single isomer, unassigned) [Example 50, (E)-3-((3-butyl-7-chloro-3-ethyl-1,1-dioxido-5-phenyl-2,3,4,5-tetrahydro-1,5-benzothiazepin-8-yl)oxy)acrylic acid], the IC50 on Human LBAT is 89 nM; on Human ASBT, 77 nM; in the test on HepaRG cells (Homo sapiens, HepaRG) it was 339 nM.

As for `CCCCC1(CC)CN(c2ccccc2)c2cc(I)c(O/C=C/C(=O)O)cc2S(=O)(=O)C1` (single isomer, unassigned) [Example 57, (E)-3-((3-butyl-3-ethyl-7-iodo-1,1-dioxido-5-phenyl-2,3,4,5-tetrahydro-1,5-benzothiazepin-8-yl)oxy)acrylic acid], the IC50 at Human LBAT stood at 137 nM; at Human ASBT it was 361 nM; with HepaRG cells (Homo sapiens, HepaRG), 1160 nM.

With `CCCCC1(CC)CN(c2ccccc2)c2cc(I)c(O/C=C/C(=O)O)cc2S(=O)(=O)C1` (single isomer, unassigned) [Example 58, (E)-3-((3-butyl-3-ethyl-7-iodo-1,1-dioxido-5-phenyl-2,3,4,5-tetrahydro-1,5-benzothiazepin-8-yl)oxy)acrylic acid], the IC50 amounted to 84 nM on Human LBAT, 24 nM at Human ASBT and 1500 nM with HepaRG cells.

`CCCC[C@]1(CC)CN(c2ccccc2)c2cc(Br)c(O/C=C(\F)C(=O)O)cc2S(=O)(=O)C1` (single isomer, unassigned) [Example 64]: the IC50 is 28 nM at Human LBAT; 524 nM at Human ASBT; 455 nM with HepaRG cells (Homo sapiens, HepaRG).

On to `CCCC[C@@]1(CC)CN(c2ccccc2)c2cc(Br)c(O/C=C(\F)C(=O)O)cc2S(=O)(=O)C1` (single isomer, unassigned) [Example 65], for which the IC50 at Human LBAT worked out at 20 nM; at Human ASBT, 27 nM; with HepaRG cells (Homo sapiens, HepaRG) it was 265 nM.

For `CCCC[C@@]1(CC)CN(c2ccccc2)c2cc(SC)c(O/C=C/C(=O)O)cc2S(=O)(=O)N1` (single isomer, unassigned) [Example 77], the IC50 on Human LBAT turned out to be 297 nM; on Human ASBT, 24 nM; in the test on HepaRG cells (Homo sapiens, HepaRG), 5330 nM.

In the case of `CCCC[C@@]1(CC)CN(c2ccccc2)c2cc(SC)c(O/C=C(\F)C(=O)O)cc2S(=O)(=O)N1` (single isomer, unassigned) [Example 85], the IC50 on Human LBAT stood at 71 nM; at Human ASBT it was 7 nM; in the test on HepaRG cells (Homo sapiens, HepaRG), 1110 nM.

As for `CCCC[C@]1(CC)CN(c2ccccc2)c2cc(SC)c(O/C=C(\F)C(=O)O)cc2S(=O)(=O)N1` (single isomer, unassigned) [Example 86], the IC50 came out at 31 nM on Human LBAT; 88 nM at Human ASBT; 527 nM in the test with HepaRG cells (Homo sapiens, HepaRG).

Regarding `CCCC[C@]1(CC)CN(c2ccccc2)c2cc(SC)c(O/C=C(\F)C(=O)O)cc2S(=O)(=O)N1C` (single isomer, unassigned) [Example 100], the IC50 on Human LBAT turned out to be 49 nM; on Human ASBT, 631 nM; in the test on HepaRG cells (Homo sapiens, HepaRG) it was 1450 nM.

Regarding `CCCC[C@@]1(CC)CN(c2ccccc2)c2cc(N(C)C)c(O/C=C(\F)C(=O)O)cc2S(=O)(=O)C1` (single isomer, unassigned) [Example 109], the IC50 is 68 nM at Human LBAT; 6.5 nM on Human ASBT; > 2220 nM with HepaRG cells (Homo sapiens, HepaRG).

Take `CCCCC1(CCCC)CN(c2ccc(N)cc2)c2cc(SC)c(O/C=C/C(=O)O)cc2S(=O)(=O)C1` [Example 2, (E)-3-((5-(4-aminophenyl)-3,3-dibutyl-7-(methylthio)-1,1-dioxido-2,3,4,5-tetrahydro-1,5-benzothiazepin-8-yl)oxy)acrylic Acid]: the IC50 at Human LBAT is 1400 nM; at Human ASBT it was 354 nM; with HepaRG cells (Homo sapiens, HepaRG), > 6670 nM.

With `CCCCC1(CCCC)CN(c2ccc(NC(=O)OC(C)(C)C)cc2)c2cc(SC)c(O/C=C/C(=O)O)cc2S(=O)(=O)C1` [Example 3, (E)-3-((5-(4-((tert-butoxycarbonyl)amino)phenyl)-3,3-dibutyl-7-(methylthio)-1,1-dioxido-2,3,4,5-tetrahydro-1,5-benzothiazepin-8-yl)oxy)acrylic Acid], the IC50 is 177 nM on Human LBAT; > 10000 nM on Human ASBT; 885 nM in the test on HepaRG cells (Homo sapiens, HepaRG).

For the molecule `CCCCC1(CCCC)CN(c2ccccc2)c2cc(C3CC3)c(O/C=C/C(=O)O)cc2S(=O)(=O)C1` [Example 7, (E)-3-((3,3-dibutyl-7-cyclopropyl-1,1-dioxido-5-phenyl-2,3,4,5-tetrahydro-1,5-benzothiazepin-8-yl)oxy)acrylic Acid], the IC50 on Human LBAT stood at 749 nM; on Human ASBT, 217 nM; in the test with HepaRG cells (Homo sapiens, HepaRG), 3190 nM.

Regarding `CCCCC1(CCCC)CN(c2ccc(NS(=O)(=O)C3CC3)cc2)c2cc(SC)c(O/C=C/C(=O)O)cc2S(=O)(=O)C1` [Example 9, (E)-3-((3,3-dibutyl-5-(4-(cyclopropanesulfonamido)phenyl)-7-(methylthio)-1,1-dioxido-2,3,4,5-tetrahydro-1,5-benzothiazepin-8-yl)oxy)acrylic Acid], the IC50 came out at 1090 nM at Human LBAT; 1200 nM at Human ASBT; 3080 nM with HepaRG cells (Homo sapiens, HepaRG).

In the case of `CCCCC1(CCCC)CN(c2ccc(NS(C)(=O)=O)cc2)c2cc(SC)c(O/C=C/C(=O)O)cc2S(=O)(=O)C1` [Example 10, (E)-3-((3,3-dibutyl-5-(4-(methylsulfonamido)phenyl)-7-(methylthio)-1,1-dioxido-2,3,4,5-tetrahydro-1,5-benzothiazepin-8-yl)oxy)acrylic Acid], the IC50 on Human LBAT is 3980 nM; on Human ASBT, 1410 nM; in the test on HepaRG cells (Homo sapiens, HepaRG), 4700 nM.

In the case of `CCCCC1(CCCC)CN(c2ccccc2)c2cc(CC)c(O/C=C/C(=O)O)cc2S(=O)(=O)C1` [Example 12, (E)-3-((3,3-dibutyl-7-ethyl-1,1-dioxido-5-phenyl-2,3,4,5-tetrahydro-1,5-benzothiazepin-8-yl)oxy)acrylic Acid], the concentration for half-maximal inhibition (IC50) on Human LBAT amounted to 393 nM; on Human ASBT it was 482 nM; in the test on HepaRG cells (Homo sapiens, HepaRG) it was 2610 nM.
